Data as given in US11045452B2, “Composition for preventing or treating cancer comprising a vascular disrupting agent and immune checkpoint inhibitor” (CHONG KUN DANG PHARMACEUTICAL CORP., priority 2017, dated 2021).

Columns and labels:
[1] = system: MC38, a mouse colorectal cancer cell line; assay: MC38 cancer animal model, Formula 1 with anti-PD-L1 antibody (Example 3); assay type: in vivo, C57BL/6 mouse; settings: FIG. 7
Method: (§1) MC38 (8×10^4 cell), a mouse colorectal cancer cell line, was subcutaneously transplanted to a C57BL/6 mouse. When a size of cancer reaches 40-60 mm^3, a vehicle or 5 mg/kg of the compound of the Formula 1 was intraperitoneally injected into the mouse twice a week. Also, 1 ug/uL (200 ug/200 uL/mouse) of an anti-PD-L1 antibody was intraperitoneally injected into the mouse twice a week, in one day after administering a vehicle or the compound of the Formula 1. A size of cancer and a weight were measured twice a week.

[2] = system: MC38, a mouse colorectal cancer cell line; assay: MC38 cancer animal model, Formula 1 with anti-PD-1 / anti-CTLA-4 antibody (Example 2); assay type: in vivo, C57BL/6 mouse
Method: as §1, with “anti-PD-1 antibody, an anti-CTLA-4” for “anti-PD-L1”, “antibody or both thereof (purchased from BioXCell)” for “antibody”

[3] = system: mouse bone marrow-derived dendritic cells (BM-DC); assay: Identification of phenotype of dendritic cells (flow cytometry of cell surface markers); assay type: cell-based; settings: 24 hours
Method: (§2) Mouse bone marrow-derived dendritic cells (BM-DC) were obtained from a femur of BALB/c or C57BL/6 mouse. The cells were kept with Dulbecco's modified Eagle medium (DMEM) containing 40 ng/mL of rmGM-CSF (JW Creagene, Sungnam, Korea) and 20 ng/mL of rmIL-4 (JW CreaGene), and containing 10% heat-inactivated FBS (Hyclone), 100 U/ml of penicillin, 100 μg/ml of streptomycin (Hyclone) and 50 μM of 2-mercaptoethanol (Sigma-Aldrich, Inc., St. Louis, Mo., USA).
(§3) A compound of a Formula 2 (Compound 2), which was an active metabolite of the compound of the Formula 1, was dissolved in DMSO, and diluted with a medium of the mouse bone marrow-derived dendritic cells so as to prepare active compound.
To identify a phenotype of dendritic cells, the mouse bone marrow-derived dendritic cells were treated with the compound of the Formula 2 for 24 hours, and then were dyed with an antibody (antibody to anti-mouse CD80, anti-mouse CD86 or anti-mouse MHC II) to a cell surface marker of the mouse bone marrow-derived dendritic cells as well as an isotype control antibody. Flow cytometry was performed by using FACS Canto II flow cytometer (Becton Dickinson).
(§4) A statistical significance between a control group and a treated group was verified by using student t-test.

[4] = system: mouse bone marrow-derived dendritic cells (BM-DC); assay: Measurement of phagocytosis of dendritic cells (FITC OVA-microsphere, flow cytometer); assay type: cell-based; settings: 100 nM, 18 hours, then FITC OVA-microsphere 2 hours, FIG. 5
Method: as §2, §3
To identify phagocytosis of dendritic cells, the mouse bone marrow-derived dendritic cells (2×10^6/well) were treated with 100 nM of the compound of the Formula 2 for 18 hours, and then added with OVA-microsphere containing ovalbumin tagged with fluorescein isothiocyanate (FITC), so as to be cultured for 2 hours. Completely cultured cells were washed with PBS, and then the cells were collected, fixed with paraformaldehyde, and analyzed with a flow cytometer.
as §4

[5] = system: mouse bone marrow-derived dendritic cells (BM-DC); assay: Measurement of cytokines produced by dendritic cells (immunoassay kit); assay type: cell-based; settings: 24 hours, cell culture medium, all groups administered, FIG. 4
Method: as §2, §3
To identify a change in secretion of cytokines, the mouse bone marrow-derived dendritic cells were treated with the compound of the Formula 2 for 24 hours, and then the cytokines were measured by using a cell culture medium. An immunoassay kit (R&D system) was used for measuring cytokines, and thus IL-1β, IL-6 and IL-12 were measured.
as §4

| Structure (SMILES) | therapeutic potential in combination with the anti-PD-L1 antibody ([1]; Formula 1 5 mg/kg i.p. + anti-PD-L1 antibody 200 ug/mouse i.p., twice a week) | growth of cancer ([1]; single administration, Formula 1 5 mg/kg i.p. twice a week, antibody 200 ug/mouse i.p. twice a week) | therapeutic potential in combination with the anti-CTLA-4 antibody ([2]; Formula 1 5 mg/kg i.p. + anti-CTLA-4 antibody 200 ug/mouse i.p., twice a week, FIG. 6) | therapeutic potential in combination with the anti-PD-1 antibody ([2]; Formula 1 5 mg/kg i.p. + anti-PD-1 antibody 200 ug/mouse i.p., twice a week, FIG. 6) | experimental animals in which cancer was completely eradicated ([2]; Formula 1 5 mg/kg i.p. + anti-PD-1 antibody and anti-CTLA-4 antibody, twice a week) | anti-cancer effect in combination with the anti-PD-1 antibody and the anti-CTLA-4 antibody ([2]; Formula 1 5 mg/kg i.p. + both antibodies i.p., twice a week, FIG. 6) | growth of cancer ([2]; single administration, Formula 1 5 mg/kg i.p. twice a week, antibody 200 ug/mouse i.p. twice a week, FIG. 6) | MHC II (phenotype of mature dendritic cells) expression ([3]; 100 nM, FIG. 3) | CD80 (mature dendritic cell marker) expression ([3]; 0.01, 0.1 and 1 μM, FIG. 1) | CD86 (mature dendritic cell marker) expression ([3]; 0.01, 0.1 and 1 μM, FIG. 2) | phagocytosis of dendritic cells (fluorescence intensity) [4] | IL-1β secretion [5] | IL-6 secretion [5] | IL-12 secretion [5] |
| --- | --- | --- | --- | --- | --- | --- | --- | --- | --- | --- | --- | --- | --- | --- |
| COc1cc(C(=O)c2ccc(-c3csc(NC(=O)[C@@H](N)C(C)C)n3)cc2-n2cncn2)cc(OC)c1OC [Formula 1, (S)—N-(4-(3-(1H-1,2,4-triazole-1-yl)-4-(3,4,5-trimethoxybenzoyl)phenyl)thiazole-2-yl)-2-amino-3-methylbutanamide] | very high therapeutic potential with a synergy effect | remarkably inhibited | very high therapeutic potential with a synergy effect | very high therapeutic potential with a synergy effect | two of ten | most increased | remarkably inhibited |  |  |  |  |  |  |  |
| COc1cc(C(=O)c2ccc(-c3csc(N)n3)cc2-n2cncn2)cc(OC)c1OC [Formula 2, (4-(2-aminothiazole-4-yl)-2-(1H-1,2,4-triazole-1-yl)phenyl)(3,4,5-trimethoxyphenyl)methanone] |  |  |  |  |  |  |  | increased | increased | increased | increased | increased | increased | increased |
